Results taken from patent US20140135370A1, “TREATING CANCER WITH AN HSP90 INHIBITORY COMPOUND” (SYNTA PHARMACEUTICALS CORP., priority 2011, published 2014).
Like-named read-outs stand apart in the source and are kept apart here.

What was measured:
[1] = tested on: Hsp90 client proteins in AGS gastric cancer cells; assay: Western blot of Hsp90 client proteins, AGS; format: cell-based
[2] = tested on: human KRAS mutant NSCLC tumor xenografts; assay: KRAS mutant NSCLC tumor xenografts in vivo; design: species or system mouse; conditions: single agent
Method: Female immunodeficient CD-1 (nude) mice (Charles River Laboratories, Wilmington, Mass.) were maintained in a pathogen-free environment, and all in vivo procedures were approved by the Synta Pharmaceuticals Corp. Institutional Animal Care and Use Committee. A549 NSCLC cells (7.5×10^6) were subcutaneously implanted into the animals. […] Tumor growth inhibition was determined as described previously. See Proia et al, PLoS One. 2011; 6(4):e18552.

[3] = tested on: Chk1 and Chk2 phosphorylation in Detroit 562 head and neck cancer cells; assay: Western blot after bleomycin, Detroit 562; format: cell-based; conditions: 100 nM 24 hours prior to bleomycin (5 μM)
Method: Protein expression of Parp, P-Chk1, P-Chk2, and Gapdh (control) was measured at the indicated time points (1, 4, and 8 hours) after bleomycin treatment.
Protein expression was measured at the indicated time points after bleomycin treatment.

[4] = Pharmacokinetics in the Phase 1 combination trial with docetaxel; format: in vivo, human; conditions: patients
Method: A trial to evaluate three dose-level combinations of docetaxel and the compound of formula (I), administered on a three-week cycle, with the primary objective of determining an optimal dose for future clinical trials was performed. […] The standard of care dose level for docetaxel was 75 mg/m^2. A total of 19 patients received at least one dose of study treatment at the cut-off time. The median number of cycles of treatment was 4, with a range of 1 to 11 cycles of treatment. No prophylactic treatment for neutropenia was used.

Hs746T = assay: 72 hr viability by Syto60, Hs746T; format: cell-based; conditions: Homo sapiens
Method: Many of the oncoproteins associated with gastric cancer and Hsp90 client proteins including HER2, MET, RAS and the FGFR family. […] Cells were treated for 72 hr and viability determined by CTG (upper) or Syto60 (lower).

HCC70 = assay: 72 hr viability by CTG, HCC70; format: cell-based; conditions: Homo sapiens, HCC70, Basal A
Method: Breast cancer is a heterogeneous disease historically broken down into 4 subtypes. Various compounds were tested for their effects in cell viability assays using various breast cancer cell lines. Cellular viability was assessed using the CellTiter-Glo® Luminescent Cell Viability Assay (Promega, Madison, Wis., USA) according to the manufacturer's protocol. […] were seeded into 96-well plates based on optimal growth rates determined empirically for each line. […] CellTiter-Glo® was added (50% v/v) to the cells, and the plates incubated for 10 min prior to luminescent detection in a SpectraMax® Plus 384 microplate reader (Molecular Devices, Sunnyvale, Calif., USA). Data were normalized to percent of control and IC50 values used to determine the sensitivity of each line.

[5] = tested on: Detroit 562 H/N cancer cells; assay: Single agent viability assay, Detroit 562, 72 hr; format: cell-based
From the text: Head and neck (H/N) cancer refers to a group of biologically similar cancers originating from the upper autodigestive tract. First line therapies include EGFR inhibitors and platins.

[6] = Serial PK in patients with solid tumors, twice-weekly infusion; format: in vivo, human
From the text: (§1) Serial PK and pharmacodynamic samples were obtained during cycle 1. Safety assessments included frequency and grade of adverse events (AEs), laboratory parameters and ECG changes.

solid tumors [7] = assay: Phase I dose escalation study, twice-weekly administration in patients with solid tumors; format: in vivo, human; conditions: 41 of 54 enrolled patients assessable; 1-hour infusion 2 times per week, 3 weeks on, 1 week dose-free
Method: An open-label Phase 1 dose-escalation study in subjects with solid tumors was performed. […] The first infusion for the first three subjects was staggered by a minimum of 5 days between subjects. This staggered enrollment scheme was followed for the first cohort only.
Subsequent cohorts were originally planned to receive escalating doses of 4, 7, 10, 14, 19, 25, 33, 40 and 48 mg/m^2, provided that the previous dose was well-tolerated during cycle 1 (week 1-4). The dose escalation scheme was updated to 25, 50, 75 and 100 mg/m^2, provided that the previous dose was well-tolerated during cycle 1. Following the completion of enrollment at 50 mg/m^2 twice per week, subsequent cohorts were to be treated at 100 mg/m^2 (100% increase above prior dose) and 120 mg/m^2 (20% increase above prior dose), with further dose increments to be approximately 20% over the previous dose level, until the maximum tolerated dose (MTD) was determined. Enrollment was completed at 100 mg/m^2 and the next doses planned were 120 mg/m^2 and 144 mg/m^2.
There had to be at least three evaluable subjects in a cohort before dose escalation could occur. […] Once a subject experienced a DLT the cohort was expanded to six subjects. If only 1 of 6 subjects experienced a DLT, further dose escalation was allowed. However, if 2 of 3 or 2 of 6 subjects experienced a DLT, dose escalation terminated. […]

NSCLC = assay: Phase 2 clinical trial in NSCLC by KRAS, EGFR and ALK mutation status; format: in vivo, human
Method: Initial cohorts were defined by mutation status: A) EGFR mutation, KRAS wild-type B) EGFR wild-type, KRAS mutation C) EGFR wild-type, KRAS wild-type (WT). If ≧2/14 patients in A, B or C were progression-free at 16 weeks, enrollment increased to 23 patients for that cohort. Tumor response was assessed every 8 weeks. Cohort D was added to include 35 additional EGFR wild-type and KRAS wild-type patients with adenocarcinoma histology. FISH analysis for ALK translocation, was performed for Cohorts C and D.

solid tumors [8] = assay: Phase 2 study in solid tumors, twice-weekly infusion; format: in vivo, human
From the text: as §1

GIST = assay: Phase 2 study in gastrointestinal stromal tumors (GIST); format: in vivo, human
Method: GIST status was assessed at 8 weeks per RECIST, until progression.

[9] = tested on: MET, IGF-IR, AKT in MKN45 cells; assay: Western blot of Hsp90 client proteins, MKN45; format: cell-based

Method for metastatic breast cancer: The primary endpoint of the trial was overall response rate using RECIST 1.1. Patients with HER2+ breast cancer were required to have received prior therapy with trastuzumab. No more than 3 lines of chemotherapy in the metastatic setting were permitted, but there was no limit on prior lines of hormone therapy. Patients were evaluated for response after 2 cycles. The trial used a Simon two-stage design requiring at least 3 responses among the first 22 patients, to allow expansion to a total of 40 patients.

Structure (SMILES): CC(C)c1cc(-c2nnc(O)n2-c2ccc3c(ccn3C)c2)c(O)cc1O [compound of formula (I), ganetespib]
- Effect on B-RAF expression [1]: enhanced B-RAF expression
- Effect on Hsp90 client protein expression [1]: abolished the expression of EGFR, IGF-IR, C-RAF and their down-stream effectors PI3K/AKT and MAPK
- Growth of tumor xenografts [2]: effectively suppressed the growth
- Effect on bleomycin-increased Chk1 and Chk2 phosphorylation [3]: blocked
- Effect on docetaxel pharmacokinetics [4]: no effect
- Pharmacokinetics alone versus administered prior to docetaxel [4]: pharmacokinetic similarity
- IC50 (Hs746T): 0.384 µM
- IC50 (HCC70): 0.114 µM
- Extent of cell kill after 72 hr exposure [5]: A fraction of cells remained viable
- Distribution [6]: rapid distribution
- Confirmed partial responses, melanoma (solid tumors [7]): 1 patient
- Confirmed partial responses, triple negative breast cancer (solid tumors [7]): 1 patient
- Adverse events reported in >20% of patients (NSCLC; 73 patients, 200 mg/m^2 once weekly for 3 of a 4-wk cycle, generally grade 1-2): diarrhea, fatigue, nausea, anorexia, constipation, and dyspnea
- Objective response rate (CR + PR) (NSCLC; ALK+ patients, 4/8): 50%
- Best response reported, cohort C (NSCLC; Cohort C: EGFR wild-type, KRAS wild-type): durable partial response (PR)
- Tolerability (NSCLC; single agent, 200 mg/m^2 once weekly): well-tolerated in patients with NSCLC at 200 mg/m^2 once weekly without severe liver, ocular, cardiovascular or renal toxicity
- CBR (CR + PR + SD > 6 months) (metastatic breast cancer; ER+/HER2− (N = 6)): 0 patients
- CR (metastatic breast cancer; ER+/HER2− (N = 6)): 0 patients
- ORR (metastatic breast cancer; ER+/HER2− (N = 6)): 0 patients
- PR (metastatic breast cancer; ER+/HER2− (N = 6)): 0 patients
- CBR (CR + PR + SD > 6 months) (metastatic breast cancer; HER2+ (N = 13)): 2 (9%) patients (%)
- CR (metastatic breast cancer; HER2+ (N = 13)): 0 patients
- ORR (metastatic breast cancer; HER2+ (N = 13)): 2 (9%) patients (%)
- PR (metastatic breast cancer; HER2+ (N = 13)): 2 patients
- CBR (CR + PR + SD > 6 months) (metastatic breast cancer; TNBC (N = 3)): 0 patients
- CR (metastatic breast cancer; TNBC (N = 3)): 0 patients
- ORR (metastatic breast cancer; TNBC (N = 3)): 0 patients
- PR (metastatic breast cancer; TNBC (N = 3)): 0 patients
- CBR (CR + PR + SD > 6 months) (metastatic breast cancer; Total (N = 22)): 2 (9%) patients (%)
- CR (metastatic breast cancer; Total (N = 22)): 0 patients
- PR (metastatic breast cancer; Total (N = 22)): 2 (9%) patients (%)
- ORR (metastatic breast cancer; Total (N = 22), 200 mg/m^2 once weekly 3 weeks of 28 day cycle, RECIST 1.1): 2 (9%) patients (%)
- Tolerability (solid tumors [8]; twice-weekly): well-tolerated administered twice-weekly
- Response in a patient with metastatic melanoma (solid tumors [8]; twice-weekly dosing): confirmed durable PR by RECIST
- Patients with SD≧8 wks (GIST; 23 evaluable patients): 8 patients
- Patients with SD≧16 wks (GIST; 23 evaluable patients): 4 patients
- Tolerability (GIST; once-weekly dosing): well-tolerated in patients with heavily pre-treated advanced GIST, with no evidence of severe liver, ocular, cardiac or renal toxicity
- Effect on MET, IGF-IR and AKT [9]: complete degradation of MET and IGF-IR, followed by inactivation of AKT
